The subject of the assay is Murine RAW 264.7 macrophages. Nature of the assay: LPS-induced TNF-α production in RAW 264.7 macrophages (ELISA). Type of assay: cell-based. As to conditions: 1 μM compound for 1 h, then 1 μg/mL LPS, vs vehicle (DMSO), FIG. 1. The procedure: Murine RAW 264.7 macrophages (ATCC TIB-71) were cultured in Dulbecco's Modified Eagle's Medium supplemented with fetal bovine serum (FBS) at a final concentration of 10%. The cells were maintained in T75 flasks in humidified atmosphere with 5% CO2 at 37° C. Subculturing was performed every 2-3 days with a cellscraper.
RAW 264.7 macrophages were seeded onto 24-well plate in 1 mL of complete growth medium and left overnight to enable cell attachment. Next day the cells were washed with phosphate buffered saline and the medium was replaced with 0.5 mL of low serum medium containing 1% FBS. After 3 h of incubation, the medium was replaced with serum-free medium (0.5 mL) and incubated for 1.5 h. Then, the cells were exposed to 1 μM (R,R′)-4′-methoxy-1-naphthylfenoterol (MNF) or vehicle (DMSO) for 1 h followed by stimulation with 1 μg/mL lipopolysaccharide (LPS, E. coli 055: B5). Media were collected at the following timepoints after LPS administration: 0 h, 2 h, 4 h, 6 h, 8 h, and 10 h.
TNF-α was measured in all collected media samples using Quantikine ELISA kit (MTA00B) from R&D Systems according to manufacturer's protocol.
Statistical analysis Obtained data were assessed and plotted using GraphPad Prism 8.4.2. Two-way analysis of variance (ANOVA) followed by Sidak post-hoc test was used to compare mean TNF-α concentration across treatments and exposure times.
On the technique in general: An ELISA detects its analyte on a solid surface through an enzyme-linked reagent.

Consider `COc1ccc(C[C@@H](C)NC[C@H](O)c2cc(O)cc(O)c2)c2ccccc12` [(R,R′) MNF, (R,R′)-4′-methoxy-1-naphthylfenoterol], for which the “inhibition of LPS-induced production of TNF-α” value was “significant inhibition” (8 h timepoint after LPS) and “significant inhibition” (10 h timepoint after LPS).

The record behind these values is patent US20230165811A1, “METHOD FOR TREATING SYMPTOMS OF VIRAL INFECTIONS” (priority 2020, published 2023).
